Patent US20240327415A1, “Multicomponent Complexes, Including Salts, Crystalline Forms, and Hydrates and Solvates of ENT1 Inhibitors” (iTeos Belgium SA, priority 2023, published 2024)

Assay: Variable Temperature X-Ray Powder Diffraction (VT-XRPD)
Type: physicochemical
Design: key: Crystalline Form 2 di(hydrogen sulfate) trihydrate; Crystalline Form 5 di(hydrogen sulfate); PC: Poorly Crystalline
Details: second Heating, hold 30 min
Procedure: (§1) In the examples below, VT-XRPD analysis was carried out on a Philips X'Pert Pro Multipurpose diffractometer equipped with a temperature chamber. The samples were scanned between 4 and 36° 2θ using Cu K radiation (α1 λ=1.54060 Å; α2=1.54443 Å; β=1.39225 Å; α1: α2 ratio=0.5; most, if not all, B radiation is removed from the beam using an X-ray mirror) running in Bragg-Brentano geometry (step size 0.008° 2θ) using 40 kV/40 mA generator settings. Measurements were carried out from ambient temperature to an upper limit of 250° C., with a final measurement taken after cooling.
as §1, with “VT-XRPD” for “In the examples below, VT-XRPD”, “Å; β2=1.39225” for “Å; β=1.39225”, “Å; α1:α2” for “Å; α1: α2”, “all, β” for “all, B”

CCCN1CCNCCCNC(=O)c2cc(OC)c(OC)c(c2)OCCC[C@@H](OC(=O)c2cc(OC)c(OC)c(OC)c2)CC1
VT-XRPD Results (120° C.): 5
VT-XRPD Results (130° C.): 5
